Several values for one entry are separate records, joined by “and”; a condition that tells them apart may be missing. Identical values can stand only once. Like-named read-outs stand apart in the source and are kept apart here.
Legend:
[1] = cited from earlier work; for pKa: solution pKa
CYP3A4 [2] = conditions: 5–30 °C, 100 mM KPi pH 7.4 + 20% glycerol
CYP3A4 [3] = test: UV/vis absorbance titration of purified CYP3A4; assay type: binding, human; conditions: for optical binding spectrum type: UV/vis difference spectrum; for Soret Red Shift: comparison of 1,2,3-TRZ and 17-click
CYP2C9 (hepta mutant) = test: UV/vis absorbance titration of purified CYP2C9; assay type: binding, human
CYP2B4 = conditions: 25°C; relative to 1-PI / 4-PI; cited from earlier work
[4] = system: human Methionine Amino Peptidase 2; conditions: cited from earlier work
CYP3A4 [5] = target: T1, CYP3A4 (Homo sapiens, UniProt P08684); test: Inhibition of testosterone 6β-hydroxylation by CYP3A4 in Supersomes; assay type: biochemical; conditions: 50 μM testosterone, LC-MS/MS
CYP3A4 [6] = target: T1, CYP3A4; test: Substrate depletion by CYP3A4 Supersomes; assay type: in vitro ADME
CYP3A4 [7] = conditions: CYP3A4 Supersomes, cited from earlier work
CYP3A4 [8] = conditions: cited from earlier work
[9] = 20°C, 100 mM KPi pH 7.4 + 20% glycerol

T1 sequence (P08684 whole entry): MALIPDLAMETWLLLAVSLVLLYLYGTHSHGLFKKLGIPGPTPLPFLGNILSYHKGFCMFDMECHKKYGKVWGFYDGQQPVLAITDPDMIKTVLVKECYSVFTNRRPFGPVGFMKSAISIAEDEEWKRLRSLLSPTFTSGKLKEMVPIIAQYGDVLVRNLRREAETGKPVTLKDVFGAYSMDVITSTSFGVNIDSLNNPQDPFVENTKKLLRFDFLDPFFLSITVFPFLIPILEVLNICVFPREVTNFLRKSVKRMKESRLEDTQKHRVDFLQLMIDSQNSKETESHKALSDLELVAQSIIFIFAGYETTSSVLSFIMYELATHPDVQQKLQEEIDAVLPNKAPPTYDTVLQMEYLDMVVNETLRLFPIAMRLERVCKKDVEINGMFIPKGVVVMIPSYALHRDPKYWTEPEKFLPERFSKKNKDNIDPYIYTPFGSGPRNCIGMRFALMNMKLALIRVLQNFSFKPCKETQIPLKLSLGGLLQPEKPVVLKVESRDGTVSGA

Structure (SMILES): c1c[nH]nn1 [1,2,3-TRZ, 1H-1,2,3-triazole]
- pKa [1]: 1.15
- ΔH°binding (CYP3A4 [2]): -8.8 ± 0.1 kcal/mol
- ΔS°binding (CYP3A4 [2]): −22 ± 0.4 cal/mol/K
- Abs390 (1μM), estimate of efficiency of type II ligand to decrease high spin enzyme fraction (CYP3A4 [3]; 20°C): −0.023
- Absmax (1μM), maximum peak trough intensity normalized to 1 μM (CYP3A4 [3]; 20°C): 0.058
- Soret band red shift (CYP3A4 [3]; 20°C): 6 nm
- Kd (CYP3A4 [3]; [9]): 14300 µM
- optical binding spectrum type (CYP3A4 [3]): type II
- Soret Red Shift (CYP3A4 [3]): 6 nm
- fold lower affinity vs. IMZ (CYP3A4 [3]; from KD): ~ 38 fold
- ΔAbsmax (1μM), peak minus trough intensity from difference spectrum (CYP3A4 [3]; normalized to 1 μM): 0.058
- Absmax (1μM), maximum peak trough intensity normalized to 1 μM (CYP2C9 (hepta mutant); 20°C): 0.041
- Soret band red shift (CYP2C9 (hepta mutant); 20°C): 2 nm
- Kd (CYP2C9 (hepta mutant); [9]): 10000 µM
- optical binding spectrum type (CYP2C9 (hepta mutant); UV/vis difference spectrum): type II
- fold lower affinity vs. 1,2,4-TRZ (CYP2C9 (hepta mutant); from KD): ~50 fold
- fold lower affinity vs. IMZ (CYP2C9 (hepta mutant); from KD): ~ 101 fold

Structure (SMILES): c1nc[nH]n1 [1,2,4-TRZ, 1H-1,2,4-triazole]
- pKa [1]: 2.45
- Abs390 (1μM), estimate of efficiency of type II ligand to decrease high spin enzyme fraction (CYP3A4 [3]; 20°C): −0.025
- Soret band red shift (CYP3A4 [3]; 20°C): 6 nm
- Absmax (1μM), first value of two site fit (CYP3A4 [3]; 20°C, two site model): 0.0065
- Absmax (1μM), second value of two site fit (CYP3A4 [3]; 20°C, two site model): 0.050
- Kd (CYP3A4 [3]; read-out: KD1, 20°C, two site binding model, first (high affinity) equivalent): 39 µM
- Kd (CYP3A4 [3]; read-out: KD2, 20°C, two site binding model, second (low affinity) equivalent): 4800 µM
- Soret band red shift (CYP2C9 (hepta mutant); 20°C): 5 nm
- Absmax (1μM), first value of two site fit (CYP2C9 (hepta mutant); 20°C, two site model): 0.023
- Absmax (1μM), second value of two site fit (CYP2C9 (hepta mutant); 20°C, two site model): 0.044
- Kd (CYP2C9 (hepta mutant); read-out: KD1, 20°C, two site binding model, first equivalent): 198 µM
- Kd (CYP2C9 (hepta mutant); read-out: KD2, 20°C, two site binding model, second low affinity equivalent): 2850 µM

Structure (SMILES): Clc1ccc(-n2ccnc2)cc1 [1-CPI]
- ΔΔH°binding on chloro substitution (CYP2B4): -0.07 kcal/mol

Structure (SMILES): Cc1cccc(-c2c[nH]nn2)c1 [4-(3-methylphenyl)-1H-1,2,3-triazole]
- affinity [4]: 0.018 µM

Structure (SMILES): CC12CCC3c4ccc(O)cc4CCC3C1CCC2(O)c1cn[nH]n1 (stereo not drawn) [17-click, 17α-(2H-2,3,4-triazolyl)-estradiol]
- IC50 (CYP3A4 [5]): 17 ± 6 µM
- Kd (CYP3A4 [3]; 25°C, 100 mM KPi, hyperbolic binding model): 45.8 µM and 46 µM
- optical binding spectrum type (CYP3A4 [3]): type II
- Soret Red Shift (CYP3A4 [3]): 2 nm
- Kd (CYP3A4 [3]; read-out: KD200mM, 200 mM KPi): 78 µM
- compound remaining (CYP3A4 [6]; 2.5 μM substrate, 25 min incubation, 100 nM CYP3A4 in Supersomes): ~ 50%
- metabolism slowed relative to the parent molecule (CYP3A4 [6]; CYP3A4 Supersomes, relative to 17EE): 3 – 10 fold
- Km (CYP3A4 [6]; read-out: KM for total metabolism, substrate depletion, CYP3A4 Supersomes): 2.5 ± 0.4 µM
- kcat for total metabolism (CYP3A4 [6]; substrate depletion, CYP3A4 Supersomes): 0.035 ± 0.005 s⁻¹

Structure (SMILES): C#C[C@]1(O)CC[C@H]2[C@@H]3CCc4cc(O)ccc4[C@H]3CC[C@@]21C [17EE, 17α-ethynylestradiol]
- kcat for formation of 2-OH 17EE (CYP3A4 [7]): 0.000867 ± 0.00012 s⁻¹
- Km (CYP3A4 [7]; read-out: KM for formation of 2-OH 17EE): 2.5 ± 1.1 µM

Structure (SMILES): c1c[nH]cn1 [IMZ, imidazole]
- pKa298K ([1]; proton dissociation in 100 mM potassium chloride): 7.09 ± 0.1
- pKa [1]: 6.99
- ΔH°binding (CYP3A4 [2]): -8.1 ± 0.3 kcal/mol
- ΔS°binding (CYP3A4 [2]): −10 ± 1 cal/mol/K

From paper PMC3448000 (Biochemistry, 2012)
